Experimental data from ChEMBL document CHEMBL1136870, “Synthesis of aristolactam analogues and evaluation of their antitumor activity” (2009).

Assays:
Type in all cases: functional
SK-OV-3 = test: Antiproliferative activity against human SKOV3 cells by SRB assay
MDA-MB-231 = test: Antiproliferative activity against human MDA-MB-231 cells by SRB assay
BT-474 = test: Antiproliferative activity against human BT474 cells by SRB assay
A-431 = test: Antiproliferative activity against human A431 cells by SRB assay
HCT-15 = test: Antiproliferative activity against human HCT15 cells by SRB assay
A549 = test: Antiproliferative activity against human A549 cells by SRB assay
[1] = Antiproliferative activity against human MESSA cells by SRB assay; conditions: MES-SA
[2] = Antiproliferative activity against multidrug resistant human MES-SA/Dx5 cells by SRB assay
[3] = Antiproliferative activity against multidrug resistant human HCT15/CLO2 cells by SRB assay; conditions: HCT-15

Row | SMILES | GI50 (SK-OV-3) | GI50 (MDA-MB-231) | GI50 (BT-474) | GI50 (A-431) | GI50 (HCT-15) | GI50 (A549) | GI50 [1] | GI50 [2] | GI50 [3]
1 | COc1cc2c3c(cc4ccccc4c3c1OC)N(CCc1ccccc1)C2=O | 13.4 µM | > 30 µM | 12.8 µM | 23.7 µM | – | – | – | – | –
2 | Cc1c2c3c(cccc3c3ccccc13)C(=O)N2C | 13.1 µM | – | – | 2.83 µM | 3.79 µM | 1.62 µM | – | – | –
3 | COc1cc2c3c(c(C)c4ccccc4c3c1OC)N(CCN1CCCCC1)C2=O | 0.33 µM | – | – | 0.18 µM | 0.27 µM | 0.18 µM | – | – | –
4 | COc1cc2c3c(cc4ccccc4c3c1OC)N(C)C2=O | 3.42 µM | – | – | 5.75 µM | 8.47 µM | – | 3840 nM | 9.52 µM | 8.61 µM
5 | COc1cc2c3c(cc4cc5c(cc4c3c1OC)OCO5)N(C)C2=O | – | – | – | – | 5.93 µM | – | 27100 nM | 18.9 µM | 1.64 µM
6 | COc1cc2c3c(cc4cc(Cl)ccc4c3c1OC)N(C)C2=O | – | – | – | – | 2.94 µM | – | > 30000 nM | > 30 µM | 17.9 µM
7 | COc1cc2c3c(cc4ccc(C)cc4c3c1OC)N(C)C2=O | – | – | – | – | 1.53 µM | – | > 30000 nM | > 30 µM | 1.46 µM
8 | C#CCN1C(=O)c2cc(OC)c(OC)c3c2c1cc1ccccc13 | > 30 µM | > 30 µM | > 30 µM | > 30 µM | – | – | – | – | –
9 | COc1cc2c3c(cc4ccccc4c3c1OC)N(Cc1cccs1)C2=O | 23.8 µM | > 30 µM | > 30 µM | > 30 µM | – | – | – | – | –
10 | COc1ccc(N2C(=O)c3cc(OC)c(OC)c4c3c2cc2ccccc24)cc1 | 16.2 µM | > 30 µM | 23.7 µM | 32.5 µM | – | – | – | – | –
11 | COc1cc2c3c(cc4c5c(ccc4c3c1OC)OCO5)N(CCN1CCCCC1)C2=O | < 0.1 µM | – | – | < 0.1 µM | 0.1 µM | < 0.1 µM | < 100 nM | < 0.1 µM | 0.14 µM
12 | COc1cc2c3c(cc4ccccc4c3c1OC)N(CC1CC1)C2=O | 24.2 µM | > 30 µM | 23 µM | 27.1 µM | – | – | – | – | –
13 | COc1cc2c3c(cc4cc(Cl)ccc4c3c1OC)N(CCN1CCCCC1)C2=O | 0.91 µM | – | – | 0.18 µM | 0.92 µM | 0.26 µM | 590 nM | 0.61 µM | 0.83 µM
14 | COc1cc2c3c(cc4ccccc4c3c1OC)N(Cc1ccncc1)C2=O | 9.94 µM | – | – | > 30 µM | – | – | – | – | –
15 | COc1cc2c3c(cc4ccccc4c3c1OC)N(CCN1CCCCC1)C2=O | 0.95 µM | – | – | 1.29 µM | 1.73 µM | 0.95 µM | 1460 nM | 1.51 µM | 1.58 µM
16 | COc1cc2cc3c4c(cc(OC)c(OC)c4c2cc1OC)C(=O)N3CCN1CCCCC1 | 1.71 µM | – | – | 1.19 µM | 4.22 µM | 1.54 µM | – | – | –
17 | COc1ccc2c(c1)cc1c3c(cc(OC)c(OC)c32)C(=O)N1C | – | – | – | – | 0.3 µM | – | 1220 nM | 0.76 µM | 0.16 µM
18 | CN1C(=O)c2cccc3c2c1cc1ccccc13 | 4.26 µM | – | – | 8.02 µM | 4.21 µM | 1.54 µM | 1810 nM | 3.56 µM | 5.72 µM

Row | SMILES | GI50 (SK-OV-3) | GI50 (MDA-MB-231) | GI50 (BT-474) | GI50 (A-431) | GI50 (HCT-15) | GI50 (A549) | GI50 [1] | GI50 [2] | GI50 [3]
19 | COc1cc2c3c(c(C)c4ccccc4c3c1OC)N(C)C2=O | > 30 µM | – | – | > 30 µM | – | – | – | – | –
20 | COc1cc2c3c(cc4c5c(ccc4c3c1OC)OCO5)N(CCN(C)C)C2=O | < 0.1 µM | – | – | < 0.0001 µM | < 0.0001 µM | < 0.1 µM | < 0.1 nM | < 0.0001 µM | 0.0095 µM
21 | COc1cc2cc3c4c(cc(OC)c(OC)c4c2cc1OC)C(=O)N3C | – | – | – | – | 0.06 µM | – | 1050 nM | 1.01 µM | 0.07 µM
22 | CCN1C(=O)c2cc(OC)c(OC)c3c2c1cc1ccccc13 | 5.45 µM | 9.37 µM | 4.16 µM | 10.9 µM | – | – | – | – | –
23 | COc1cc2c3c(cc4ccccc4c3c1OC)N(C(C)C)C2=O | 19.4 µM | > 30 µM | 20.6 µM | > 30 µM | – | – | – | – | –
24 | COCCN1C(=O)c2cc(OC)c(OC)c3c2c1cc1ccccc13 | 24.3 µM | > 30 µM | 22.5 µM | > 30 µM | – | – | – | – | –
25 | COc1cc2c3c(cc4ccccc4c3c1OC)N(c1ccc(C(C)(C)C)cc1)C2=O | 6.04 µM | 18.2 µM | 11.1 µM | 3.51 µM | – | – | – | – | –
26 | COc1ccc2cc3c4c(cc(OC)c(OC)c4c2c1)C(=O)N3CCN1CCCCC1 | 6.72 µM | – | – | 2.95 µM | 5.91 µM | 4.1 µM | – | – | –
27 | COc1cc2cc3c4c(cc(OC)c(OC)c4c2cc1OC)C(=O)N3CCN(C)C | 0.33 µM | – | – | 0.15 µM | 0.72 µM | 0.19 µM | 390 nM | 0.51 µM | 0.57 µM
28 | COc1cc2c3c(cc4ccccc4c3c1OC)N(CCN1CCOCC1)C2=O | 5.49 µM | – | – | 4.64 µM | – | – | – | – | –
29 | COc1ccc2cc3c4c(cc(OC)c(OC)c4c2c1)C(=O)N3 [ARISTOLACTAM BIII] | – | – | – | – | 3.74 µM | – | 2700 nM | 2.82 µM | 3.35 µM
30 | COc1cc2c3c(cc4ccccc4c3c1OC)NC2=O [CEPHARANONE B] | – | – | – | – | > 30 µM | – | > 30000 nM | > 30 µM | > 30 µM
31 | COc1cccc2c1C(=O)c1c(O)c3c(c(O)c1C2=O)C[C@@](O)(C(=O)CO)C[C@@H]3O[C@H]1C[C@H](N)[C@H](O)[C@H](C)O1 [DOXORUBICIN] | 0.021 µM | – | – | 0.0012 µM | 0.19 µM | 0.003 µM | 5.1 nM | 0.93 µM | 7.92 µM
32 | COc1cc([C@@H]2c3cc4c(cc3[C@@H](O[C@@H]3O[C@@H]5CO[C@@H](C)O[C@H]5[C@H](O)[C@H]3O)[C@H]3COC(=O)[C@H]23)OCO4)cc(OC)c1O [ETOPOSIDE] | – | – | – | – | 1.25 µM | – | 210 nM | 9.72 µM | 10 µM
33 | COc1cc2c3c(cc4ccccc4c3c1O)N(C)C2=O [N-METHYL PIPEROLACTAM A] | – | – | – | – | 12.8 µM | – | 14500 nM | 14.5 µM | 10.8 µM
34 | CC(=O)O[C@H]1C(=O)[C@@]2(C)[C@H]([C@H](OC(=O)c3ccccc3)[C@]3(O)C[C@H](OC(=O)[C@H](O)[C@@H](NC(=O)c4ccccc4)c4ccccc4)C(C)=C1C3(C)C)[C@]1(OC(C)=O)CO[C@@H]1C[C@@H]2O [PACLITAXEL] | – | – | – | < 1e-05 µM | 0.011 µM | – | < 0.01 nM | 0.16 µM | 0.83 µM
35 | COc1cc2c3c(cc4ccccc4c3c1O)NC2=O [PIPEROLACTAM A] | – | – | – | – | > 30 µM | – | > 30000 nM | 27 µM | > 30 µM
36 | COc1c(O)cc2c3c(cc4ccccc4c13)N(C)C2=O [SAURISTOLACTAM] | – | – | – | – | 4.1 µM | – | 23800 nM | 23.1 µM | 4.38 µM
